For one compound, Ki results are on record in article PMC3412176 (Journal of biological inorganic chemistry : JBIC : a …, 2012).

For the experiment, the target named is T1, S. oneidensis cytochrome c nitrite reductase (ccNiR, NrfA) (Shewanella oneidensis, UniProt Q8EAC7).
T1 sequence (Q8EAC7 28-467): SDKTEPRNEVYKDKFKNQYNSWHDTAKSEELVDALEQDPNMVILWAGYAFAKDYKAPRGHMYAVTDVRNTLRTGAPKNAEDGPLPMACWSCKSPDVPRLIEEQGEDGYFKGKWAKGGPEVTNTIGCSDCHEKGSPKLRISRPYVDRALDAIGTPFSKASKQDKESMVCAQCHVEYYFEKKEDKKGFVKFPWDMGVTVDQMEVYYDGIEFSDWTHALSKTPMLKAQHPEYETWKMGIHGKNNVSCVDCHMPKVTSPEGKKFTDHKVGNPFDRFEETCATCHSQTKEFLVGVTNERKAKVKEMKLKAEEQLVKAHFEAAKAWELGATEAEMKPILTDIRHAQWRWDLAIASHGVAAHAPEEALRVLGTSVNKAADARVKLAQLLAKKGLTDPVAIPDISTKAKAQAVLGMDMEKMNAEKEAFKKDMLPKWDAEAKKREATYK
The experiment is classed as biochemical.

The compound `O=S(O)O` [sulfite] showed a Ki of about 600 µM.
